Test results taken from patent US20240109930A1, “TRIAZOLYL-METHYL SUBSTITUTED ALPHA-D-GALACTOPYRANOSIDE DERIVATIVES” (Idorsia Pharmaceuticals Ltd, priority 2021, published 2024).

How the values were obtained:
human Gal-1 (hGal-1) = human Gal-1 (hGal-1) (Homo sapiens, UniProt P09382, C131S/C17S/C43S/C61S/C89S); test: Competitive binding assay: biotinylated hGal-1 binding to microplate-adsorbed asialofetuin (ASF); details: IC50 values from several measurements given as geomean
Method in brief: (§1)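 Biotinylated hGal-3 or hGal-1 (preferably cysteine-free Cys→Ser mutant), 300–1000 ng/mL, competes with compound for ASF-coated wells for 3 h at 4 °C. Bound lectin detected with streptavidin-peroxidase (80 ng/mL, 1 h, 4 °C) and ABTS by absorbance; IC50 reported as geomean of several runs.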

human Gal-3 (hGal-3) = human Gal-3 (hGal-3) (Homo sapiens (Human), UniProt P17931); test: Competitive binding assay: biotinylated hGal-3 binding to microplate-adsorbed asialofetuin (ASF); details: IC50 values from several measurements given as geomean
Method in brief: as §1

Chain of human Gal-3 (hGal-3) (P17931 whole entry): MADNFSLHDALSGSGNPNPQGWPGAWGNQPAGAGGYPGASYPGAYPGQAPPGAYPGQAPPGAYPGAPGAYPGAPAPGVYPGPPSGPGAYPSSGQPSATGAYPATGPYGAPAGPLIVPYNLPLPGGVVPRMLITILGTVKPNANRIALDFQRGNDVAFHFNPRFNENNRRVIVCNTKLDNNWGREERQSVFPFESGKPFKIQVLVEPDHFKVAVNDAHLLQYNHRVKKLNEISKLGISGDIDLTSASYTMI

SMILES | IC50 (human Gal-1 (hGal-1)) [nM] | IC50 (human Gal-3 (hGal-3)) [nM]
CO[C@@H]1[C@@H](n2cc(-c3ccc(Cl)c(F)c3F)nn2)[C@@H](O)[C@@H](CO)O[C@@H]1Cc1cn([C@@H]2CCC[C@@H]2F)nn1 [Example 2.1.79.A, (2R,3R,4S,5R,6R)-4-(4-(4-chloro-2,3-difluorophenyl)-1H-1,2,3-triazol-1-yl)-6-((1-((1R,2S)-2-fluorocyclopentyl)-1H-1,2,3-triazol-4-yl)methyl)-2-(hydroxymethyl)-5-methoxytetrahydro-2H-pyran-3-ol] | 1510 | 20
CO[C@@H]1[C@@H](n2cc(-c3ccc(Cl)c(F)c3F)nn2)[C@@H](O)[C@@H](CO)O[C@@H]1Cc1cn([C@H]2CCC[C@H]2F)nn1 [Example 2.1.79.B, (2R,3R,4S,5R,6R)-4-(4-(4-chloro-2,3-difluorophenyl)-1H-1,2,3-triazol-1-yl)-6-((1-((1S,2R)-2-fluorocyclopentyl)-1H-1,2,3-triazol-4-yl)methyl)-2-(hydroxymethyl)-5-methoxytetrahydro-2H-pyran-3-ol] | 3160 | 30
CO[C@@H]1[C@@H](n2cc(-c3ccc(Cl)c(F)c3F)nn2)[C@@H](O)[C@@H](CO)O[C@@H]1Cc1cn([C@H]2CCCC[C@H]2F)nn1 [Example 2.1.81.B, (2R,3R,4S,5R,6R)-4-(4-(4-chloro-2,3-difluorophenyl)-1H-1,2,3-triazol-1-yl)-6-((1-((1S,2R)-2-fluorocyclohexyl)-1H-1,2,3-triazol-4-yl)methyl)-2-(hydroxymethyl)-5-methoxytetrahydro-2H-pyran-3-ol] | 3050 | 40
CO[C@@H]1[C@@H](n2cc(-c3ccc(Cl)c(F)c3F)nn2)[C@@H](O)[C@@H](CO)O[C@@H]1Cc1cn([C@@H]2CCCC[C@H]2F)nn1 [Example 2.1.81.C, (2R,3R,4S,5R,6R)-4-(4-(4-chloro-2,3-difluorophenyl)-1H-1,2,3-triazol-1-yl)-6-((1-((1R,2R)-2-fluorocyclohexyl)-1H-1,2,3-triazol-4-yl)methyl)-2-(hydroxymethyl)-5-methoxytetrahydro-2H-pyran-3-ol] | 2920 | 60
CO[C@@H]1[C@@H](n2cc(-c3ccc(Cl)c(F)c3F)nn2)[C@@H](O)[C@@H](CO)O[C@@H]1Cc1cn([C@H]2CCCC[C@@H]2F)nn1 [Example 2.1.81.D, (2R,3R,4S,5R,6R)-4-(4-(4-chloro-2,3-difluorophenyl)-1H-1,2,3-triazol-1-yl)-6-((1-((1S,2S)-2-fluorocyclohexyl)-1H-1,2,3-triazol-4-yl)methyl)-2-(hydroxymethyl)-5-methoxytetrahydro-2H-pyran-3-ol] | 2180 | 60
CO[C@@H]1[C@@H](n2cc(-c3ccc(Br)c(F)c3F)nn2)[C@@H](O)[C@@H](CO)O[C@@H]1Cc1cn(C2CCC2(F)F)nn1 (stereo partly drawn) [Example 4.1.63.AB, (2R,3R,4S,5R,6R)-4-(4-(4-bromo-2,3-difluorophenyl)-1H-1,2,3-triazol-1-yl)-6-((1-(2,2-difluorocyclobutyl)-1H-1,2,3-triazol-4-yl)methyl)-2-(hydroxymethyl)-5-methoxytetrahydro-2H-pyran-3-ol] | 3190 | 70
CO[C@@H]1[C@@H](n2cc(-c3ccc(Br)c(F)c3F)nn2)[C@@H](O)[C@@H](CO)O[C@@H]1Cc1cn([C@@H]2CCCC2(F)F)nn1 [Example 4.1.64.A, (2R,3R,4S,5R,6R)-4-(4-(4-bromo-2,3-difluorophenyl)-1H-1,2,3-triazol-1-yl)-6-((1-((R)-2,2-difluorocyclopentyl)-1H-1,2,3-triazol-4-yl)methyl)-2-(hydroxymethyl)-5-methoxytetrahydro-2H-pyran-3-ol] | 1740 | 30
CO[C@@H]1[C@@H](n2cc(-c3ccc(Br)c(F)c3F)nn2)[C@@H](O)[C@@H](CO)O[C@@H]1Cc1cn([C@H]2CCCC2(F)F)nn1 [Example 4.1.64.B, (2R,3R,4S,5R,6R)-4-(4-(4-bromo-2,3-difluorophenyl)-1H-1,2,3-triazol-1-yl)-6-((1-((S)-2,2-difluorocyclopentyl)-1H-1,2,3-triazol-4-yl)methyl)-2-(hydroxymethyl)-5-methoxytetrahydro-2H-pyran-3-ol] | 1810 | 50
